This note sets out measurements from patent US9656988B2 (Pharmacyclics LLC, priority 2013, dated 2017).

Broadly, the IC50 is the concentration that inhibits the measured activity by half.

The test has as its target BTK (Homo sapiens (Human), UniProt Q06187). Put plainly: Btk in vitro inhibitory activity (one of Method A TR-FRET, Method B electrophoretic mobility shift, Method C radiometric filter binding). Format: biochemical.
Where [1] appears, read: determined using one of the methods of Example 355a, 355b and 355c, read-out: BTK IC50.

Where two headings read alike, the source gives them in different places.

Sequence of BTK (Q06187 whole entry): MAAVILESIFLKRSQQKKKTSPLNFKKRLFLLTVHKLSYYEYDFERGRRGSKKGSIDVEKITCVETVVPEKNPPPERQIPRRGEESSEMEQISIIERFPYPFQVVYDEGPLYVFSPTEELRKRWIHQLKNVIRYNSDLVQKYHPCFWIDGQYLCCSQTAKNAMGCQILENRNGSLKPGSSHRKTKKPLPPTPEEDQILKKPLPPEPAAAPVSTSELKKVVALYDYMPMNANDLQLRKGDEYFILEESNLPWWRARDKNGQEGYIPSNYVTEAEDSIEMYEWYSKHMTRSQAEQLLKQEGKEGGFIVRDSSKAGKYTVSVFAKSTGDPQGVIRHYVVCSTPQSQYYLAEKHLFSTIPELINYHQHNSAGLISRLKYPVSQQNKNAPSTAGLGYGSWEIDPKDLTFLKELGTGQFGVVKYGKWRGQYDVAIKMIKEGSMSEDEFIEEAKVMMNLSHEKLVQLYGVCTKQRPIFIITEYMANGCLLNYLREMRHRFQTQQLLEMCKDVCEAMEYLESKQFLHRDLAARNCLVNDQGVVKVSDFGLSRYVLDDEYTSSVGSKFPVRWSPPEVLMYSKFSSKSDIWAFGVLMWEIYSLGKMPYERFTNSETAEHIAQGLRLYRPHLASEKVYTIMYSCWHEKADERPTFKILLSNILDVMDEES

On to `N#CCC(=O)N1CCC(c2ccc(Nc3nc(N4CCC[C@@H](NC(=O)N5CCCCC5)C4)cnc3C(N)=O)cc2)CC1` [Example 150, (R)-3-(4-(1-(2-cyanoacetyl)piperidin-4-yl)phenylamino)-5-(3-(piperidine-1-carboxamido)piperidin-1-yl)pyrazine-2-carboxamide], for which the IC50 is < 0.01 µM under setting [1] and < 0.01 µM (read-out: Btk (IC50)).

Regarding `CN(C)C(=O)N[C@@H]1CCCN(c2cnc(C(N)=O)c(Nc3ccc(S(C)(=O)=O)cc3)n2)C1` [Example 151, (R)-5-(3-(3,3-dimethylureido)piperidin-1-yl)-3-(4-(methylsulfonyl)phenylamino)pyrazine-2-carboxamide], the IC50 was < 0.01 µM under setting [1] and < 0.01 µM (read-out: Btk (IC50)).

Turning to `CCC(=O)N1CCC(c2ccc(Nc3nc(N4CCC[C@@H](NC(=O)N(C)C)C4)cnc3C(N)=O)cc2)CC1` [Example 152, (R)-5-(3-(3,3-dimethylureido)piperidin-1-yl)-3-(4-(1-propionylpiperidin-4-yl)phenylamino)pyrazine-2-carboxamide], the half-inhibitory concentration (IC50) by setting is: under setting [1], < 0.01 µM; (read-out: Btk (IC50)) < 0.01 µM.

Take `CN(C)C(=O)N[C@@H]1CCCN(c2cnc(C(N)=O)c(Nc3ccc(C4CCN(C(=O)CC#N)CC4)cc3)n2)C1` [Example 153, (R)-3-(4-(1-(2-cyanoacetyl)piperidin-4-yl)phenylamino)-5-(3-(3,3-dimethylureido)piperidin-1-yl)pyrazine-2-carboxamide]: the 50% inhibitory concentration (IC50) under setting [1] was < 0.01 µM and the concentration for half-maximal inhibition (IC50) (read-out: Btk (IC50)) is < 0.01 µM.

With `CN(C)C(=O)N[C@@H]1CCCN(c2cnc(C(N)=O)c(Nc3ccc(C4CCNCC4)cc3)n2)C1` [Example 154, (R)-5-(3-(3,3-dimethylureido)piperidin-1-yl)-3-(4-(piperidin-4-yl)phenylamino)pyrazine-2-carboxamide], the IC50 under setting [1] was < 0.01 µM.

For the molecule `CN(C)C(=O)N[C@@H]1CCCN(c2cnc(C(N)=O)c(Nc3ccc(C4CCN(C5CCCC5)CC4)cc3)n2)C1` [Example 155, (R)-3-(4-(1-cyclopentylpiperidin-4-yl)phenylamino)-5-(3-(3,3-dimethylureido)piperidin-1-yl)pyrazine-2-carboxamide], the IC50 is < 0.01 µM under setting [1] and < 0.01 µM (read-out: Btk (IC50)).

Take `CN(C/C=C/C(=O)N1CCC[C@@H](N(C)c2cnc(C(N)=O)c(Nc3ccc(C(=O)N4CCOCC4)cc3)n2)C1)C1CC1` [Example 156, (R,E)-5-((1-(4-(cyclopropyl(methyl)amino)but-2-enoyl)piperidin-3-yl)(methyl)amino)-3-(4-(morpholine-4-carbonyl)phenylamino)pyrazine-2-carboxamide]: the half-inhibitory concentration (IC50) reads like this: under setting [1], < 0.01 µM; (read-out: Btk (IC50)) < 0.01 µM.

As for `CC#CC(=O)N1CCC[C@@H](N(C)c2cnc(C(N)=O)c(Nc3ccc(C(=O)N4CCOCC4)cc3)n2)C1` [Example 157, (R)-5-((1-but-2-ynoylpiperidin-3-yl)(methyl)amino)-3-(4-(morpholine-4-carbonyl)phenylamino)pyrazine-2-carboxamide], the 50% inhibitory concentration (IC50) runs as follows: under setting [1], < 0.01 µM; (read-out: Btk (IC50)) < 0.01 µM.

For the molecule `CN(C)C/C=C/C(=O)N1CCC[C@@H](N(C)c2cnc(C(N)=O)c(Nc3ccc(Oc4ccccc4)cc3)n2)C1` [Example 158, (R,E)-5-((1-(4-(dimethylamino)but-2-enoyl)piperidin-3-yl)(methyl)amino)-3-(4-phenoxyphenylamino)pyrazine-2-carboxamide], the 50% inhibitory concentration (IC50) under setting [1] is < 0.01 µM.

Regarding `CCOc1ccc(C(=O)N[C@@H]2CCCN(c3nnc(C(N)=O)c(Nc4ccc(C#N)cc4)n3)C2)cc1` [Example 159, (R)-5-(4-cyanophenylamino)-3-(3-(4-ethoxybenzamido)piperidin-1-yl)-1,2,4-triazine-6-carboxamide], the IC50 lay within 0.1 to 1 µM (Btk (IC50)) and 0.1 to 1 µM under setting [1].

For the molecule `COc1ccc(C(=O)N[C@@H]2CCCN(c3cnc(C(N)=O)c(Nc4ccc(C(C)C)cc4)n3)C2)cc1` [Example 160, (R)-3-(4-isopropylphenylamino)-5-(3-(4-methoxybenzamido)piperidin-1-yl)pyrazine-2-carboxamide], under setting [1], the half-inhibitory concentration (IC50) lay in the range of 0.01 to 0.1 µM.

Take `COc1ccc(C(=O)N[C@@H]2CCCN(c3cnc(C(N)=O)c(Nc4ccc(N5CCS(=O)(=O)CC5)cc4)n3)C2)cc1` [Example 161, (R)-5-(3-(4-methoxybenzamido)piperidin-1-yl)-3-(4-(1,1-dioxothiomorpholino)phenylamino)pyrazine-2-carboxamide]: the IC50 under setting [1] was < 0.01 µM and the half-inhibitory concentration (IC50) (read-out: Btk (IC50)) is < 0.01 µM.

Consider `COc1ccc(C(=O)N[C@@H]2CCCN(c3cnc(C(N)=O)c(Nc4ccc(C5CCNCC5)cc4F)n3)C2)cc1` [Example 162, (R)-3-(2-fluoro-4-(piperidin-4-yl)phenylamino)-5-(3-(4-methoxybenzamido)piperidin-1-yl)pyrazine-2-carboxamide], for which the IC50 is < 0.01 µM under setting [1] and 0.01 to 0.1 µM (read-out: Btk (IC50)).

In the case of `COc1ccc(C(=O)N[C@@H]2CCCN(c3cnc(C(N)=O)c(Nc4ccc(C5CCNCC5)c(F)c4)n3)C2)cc1` [Example 163, (R)-3-(3-fluoro-4-(piperidin-4-yl)phenylamino)-5-(3-(4-methoxybenzamido)piperidin-1-yl)pyrazine-2-carboxamide], the IC50 is, setting by setting: under setting [1], < 0.01 µM; (read-out: Btk (IC50)) < 0.01 µM.

Regarding `COc1ccc(C(=O)N[C@@H]2CCCN(c3cnc(C(N)=O)c(Nc4ccc(N5CCCCC5)cc4)n3)C2)cc1` [Example 164, (R)-5-(3-(4-methoxybenzamido)piperidin-1-yl)-3-(4-(piperidin-1-yl)phenylamino)pyrazine-2-carboxamide], under setting [1], the IC50 was < 0.01 µM.

As to `CN1CCC(c2ccc(Nc3nc(N4CCC[C@@H](NC(=O)N(C)C)C4)cnc3C(N)=O)cc2)CC1` [Example 165], under setting [1], the IC50 is < 0.01 µM.

As to `CCN(C)C(=O)N[C@@H]1CCCN(c2cnc(C(N)=O)c(Nc3ccc(C4CCN(C)CC4)cc3)n2)C1` [Example 166, (R)-5-(3-(3-ethyl-3-methylureido)piperidin-1-yl)-3-(4-(1-methylpiperidin-4-yl)phenylamino)pyrazine-2-carboxamide], the IC50 under setting [1] is < 0.01 µM.

`CCN(CC)C(=O)N[C@@H]1CCCN(c2cnc(C(N)=O)c(Nc3ccc(C4CCN(C)CC4)cc3)n2)C1` [Example 167, (R)-5-(3-(3,3-diethylureido)piperidin-1-yl)-3-(4-(1-methylpiperidin-4-yl)phenylamino)pyrazine-2-carboxamide]: the IC50 was < 0.01 µM under setting [1] and < 0.01 µM (read-out: Btk (IC50)).

As to `CN1CCC(c2ccc(Nc3nc(N4CCC[C@@H](NC(=O)c5ccc(F)cc5)C4)cnc3C(N)=O)cc2)CC1` [Example 168, (R)-5-(3-(4-fluorobenzamido)piperidin-1-yl)-3-(4-(1-methylpiperidin-4-yl)phenylamino)pyrazine-2-carboxamide], the half-inhibitory concentration (IC50) runs as follows: under setting [1], < 0.01 µM; (read-out: Btk (IC50)) < 0.01 µM.

In the case of `CCOc1ccc(C(=O)N[C@@H]2CCCN(c3cnc(C(N)=O)c(Nc4ccc(C5CCN(C)CC5)cc4)n3)C2)cc1` [Example 169, (R)-5-(3-(4-ethoxybenzamido)piperidin-1-yl)-3-(4-(1-methylpiperidin-4-yl)phenylamino)pyrazine-2-carboxamide], the concentration for half-maximal inhibition (IC50) under setting [1] is < 0.01 µM.

In the case of `CN(C)C(=O)N[C@@H]1CCCN(c2cnc(C(N)=O)c(Nc3ccc(C4CCN(C(=O)N(C)C)CC4)cc3)n2)C1` [Example 170, (R)-3-(4-(1-(dimethylcarbamoyl)piperidin-4-yl)phenylamino)-5-(3-(3,3-dimethylureido)piperidin-1-yl)pyrazine-2-carboxamide], the half-maximal inhibitory concentration (IC50) by setting is: under setting [1], < 0.01 µM; (read-out: Btk (IC50)) < 0.01 µM.

In the case of `CN(C)C(=O)N[C@@H]1CCCN(c2cnc(C(N)=O)c(Nc3ccc(C4CCN(C(=O)C5CC5)CC4)cc3)n2)C1` [Example 171, (R)-3-(4-(1-(cyclopropanecarbonyl)piperidin-4-yl)phenylamino)-5-(3-(3,3-dimethylureido)piperidin-1-yl)pyrazine-2-carboxamide], the IC50 under setting [1] is < 0.01 µM and the IC50 (read-out: Btk (IC50)) is < 0.01 µM.

In the case of `CN(C)C(=O)N[C@@H]1CCCN(c2cnc(C(N)=O)c(Nc3ccc(C4CCN(S(C)(=O)=O)CC4)cc3)n2)C1` [Example 172, (R)-5-(3-(3,3-dimethylureido)piperidin-1-yl)-3-(4-(1-(methylsulfonyl)piperidin-4-yl)phenylamino)pyrazine-2-carboxamide], the half-inhibitory concentration (IC50) was < 0.01 µM under setting [1] and < 0.01 µM (read-out: Btk (IC50)).

Consider `CN(C)C(=O)N[C@@H]1CCCN(c2cnc(C(N)=O)c(Nc3ccc(C4CCN(S(=O)(=O)N(C)C)CC4)cc3)n2)C1` [Example 173, (R)-3-(4-(1-(N,N-dimethylsulfamoyl)piperidin-4-yl)phenylamino)-5-(3-(3,3-dimethylureido)piperidin-1-yl)pyrazine-2-carboxamide], for which the IC50 reads like this: (Btk (IC50)) 0.01 to 0.1 µM; under setting [1], 0.01 to 0.1 µM.

For the molecule `CN(C)C(=O)N[C@@H]1CCCN(c2cnc(C(N)=O)c(Nc3ccc(C4CCN(c5ccccn5)CC4)cc3)n2)C1` [Example 174, (R)-5-(3-(3,3-dimethylureido)piperidin-1-yl)-3-(4-(1-(pyridin-2-yl)piperidin-4-yl)phenylamino)pyrazine-2-carboxamide], the half-maximal inhibitory concentration (IC50) lay within 0.01 to 0.1 µM under setting [1] and 0.01 to 0.1 µM (read-out: Btk (IC50)).

On to `CN(C)C(=O)N[C@@H]1CCCN(c2cnc(C(N)=O)c(Nc3ccc(C4CCN(C5CCC5)CC4)cc3)n2)C1` [Example 175, (R)-3-(4-(1-cyclobutylpiperidin-4-yl)phenylamino)-5-(3-(3,3-dimethylureido)piperidin-1-yl)pyrazine-2-carboxamide], for which the concentration for half-maximal inhibition (IC50) by setting is: under setting [1], < 0.01 µM; (read-out: Btk (IC50)) < 0.01 µM.

With `CN(C)C(=O)N[C@@H]1CCCN(c2cnc(C(N)=O)c(Nc3ccc(C4CCN(C5CCOCC5)CC4)cc3)n2)C1` [Example 176, (R)-5-(3-(3,3-dimethylureido)piperidin-1-yl)-3-(4-(1-(tetrahydro-2H-pyran-4-yl)piperidin-4-yl)phenylamino)pyrazine-2-carboxamide], the IC50 by setting is: under setting [1], < 0.01 µM; (read-out: Btk (IC50)) < 0.01 µM.

As to `CN(C)C(=O)N[C@@H]1CCCN(c2cnc(C(N)=O)c(Nc3ccc(C4CCN(CCOCCO)CC4)cc3)n2)C1` [Example 177, (R)-5-(3-(3,3-dimethylureido)piperidin-1-yl)-3-(4-(1-(2-(2-hydroxyethoxy)ethyl)piperidin-4-yl)phenylamino)pyrazine-2-carboxamide], the IC50 is, setting by setting: under setting [1], < 0.01 µM; (read-out: Btk (IC50)) < 0.01 µM.
